We go through 33 compounds from patent US11530226B2, “Azepane inhibitors of menin-MLL interaction” (Janssen Pharmaceutica NV, priority 2016, dated 2022).

What is called IC50 is the concentration that gives 50% inhibition.

Experiment [1] addresses T1, terbium chelate-labeled menin / FITC-MBM1 peptide (Menin/MLL) (Homo sapiens, UniProt O00255, T541A).
T1 construct: Menin (a. a. l-610-6×his tag) was labeled with terbium cryptate as follows
T1 sequence (O00255 with tags, fused parts or gaps T541A): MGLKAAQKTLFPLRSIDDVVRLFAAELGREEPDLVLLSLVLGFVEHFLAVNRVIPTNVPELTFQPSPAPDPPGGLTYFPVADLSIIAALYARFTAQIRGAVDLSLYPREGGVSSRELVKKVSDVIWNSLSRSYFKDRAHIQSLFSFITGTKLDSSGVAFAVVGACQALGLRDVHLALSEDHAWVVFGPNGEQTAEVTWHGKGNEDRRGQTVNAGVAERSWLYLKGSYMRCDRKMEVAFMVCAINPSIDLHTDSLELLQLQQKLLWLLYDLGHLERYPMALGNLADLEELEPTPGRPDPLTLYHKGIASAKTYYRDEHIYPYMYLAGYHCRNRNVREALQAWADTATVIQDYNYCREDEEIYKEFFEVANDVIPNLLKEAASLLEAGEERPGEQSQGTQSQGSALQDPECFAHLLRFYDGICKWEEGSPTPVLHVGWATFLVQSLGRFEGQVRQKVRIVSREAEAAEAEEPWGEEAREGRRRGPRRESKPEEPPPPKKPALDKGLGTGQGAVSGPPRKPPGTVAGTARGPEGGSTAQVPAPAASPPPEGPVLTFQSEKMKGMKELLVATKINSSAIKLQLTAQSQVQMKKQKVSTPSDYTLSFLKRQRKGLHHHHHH
In words: Menin/MLL homogenous time-resolved fluorescence (HTRF) assay. Format: binding. Conditions: read-out: (2) Menin HTRF assay (IC50 (nM)). The protocol: 2) Menin/MLL Homogenous Time-Resolved Fluorescence (HTRF) Assay
To an untreated, white 384-well microtiter plate was added 40 nL 200× test compound in DMSO and 4 μL 2× terbium chelate-labeled menin (vide infra for preparation) in assay buffer (40 mM Tris .HCl, pH 7.5, 50 mM NaCl, 1 mM DTT and 0.05% Pluronic F-127). After incubation of test compound and terbium chelate-labeled menin for 5 min at ambient temperature, 4 μL 2×FITC-MBM1 peptide (FITC-P-alanine-SARWRFPARPGT-NH2) in assay buffer was added, the microtiter plate centrifuged at 1000 rpm for 1 min and the assay mixtures incubated for 15 min at ambient temperature. The relative amount of menin ⋅FITC-MBM1 complex present in an assay mixture is determined by measuring the homogenous time-resolved fluorescence (HTRF) of the terbium/FITC donor/acceptor fluorphore pair using a BMG Pherastar plate reader (ex. 337 nm/terbium cm. 490 nm/FITC cm. 520 nm) at ambient temperature. The degree of fluorescence resonance energy transfer (the HTRF value) is expressed as the ratio of the fluorescence emission intensities of the FITC and terbium fluorophores (P^m 520 nm//F^em 490 nm). The final concentrations of reagents in the binding assay are 100 pM terbium chelate-labeled menin, 75 nM FITC-MBM1 peptide and 0.5%) DMSO in assay buffer. Dose-response titrations of test compounds are conducted using an 11 point, three-fold serial dilution scheme, starting typically at 25 μM.
Compound potencies were determined by first calculating % inhibition at each compound concentration according to equation 1: % inhibition=((HC−LC)−(HTRF^compound−LC))/(HC−LC))*100 (Eqn 1)
Where LC and HC are the HTRF values of the assay in the presence or absence of a saturating concentration of a compound that competes with FITC-MBM1 for binding to menin, and HTRF^compound is the measured HTRF value in the presence of the test compound. HC and LC HTRF values represent an average of at least 16 replicates per plate.
Where Bottom and Top are the lower and upper asymptotes of the dose-response curve, respectively, IC50 is the concentration of compound that yields 50% inhibition of signal and h is the Hill coefficient.
Preparation of Terbium cryptate labeling of Menin: Menin (a. a. l-610-6×his tag) was labeled with terbium cryptate as follows. 2 mg of Menin was buffer exchanged into 1× phosphate buffered saline. 16 uM Menin was incubated with 4-fold molar excess NHS-terbium cryptate (Cisbio Bioassays, Bedford, Mass.) for 2 hours at room temperature. The labeled protein was purified away from free label by running the reaction over a Superdex 200 Increase 10/300 GL column at 0.75 ml/min. Peak fractions were collected, aliquoted and frozen at −80° C.
Background: Time-resolved FRET reads energy transfer from a long-lived donor to a nearby acceptor.

A further experiment deals with MV-4-1 1 cells (MLL-AF4). As to the kind of experiment: Proliferation assay (spheroid-like growth, 8 d, live-cell imaging), MV-4-11. The experiment is classed as cell-based, human. Conditions: Homo sapiens, MV4-11, 192 h, MV-4-11 cells, absolute IC50 from AUC of confluence, read-out: (3) Spheroid assay MV-4-11 (IC50 (μM)). The protocol:
The anti-proliferative effect of menin/MLL protein/protein interaction inhibitor test compounds was assessed in human leukemia cell lines. The cell lines MV-4-1 1 and MOLM14 harbor MEL translocations and express the MEL fusion proteins MLL-AF4 and MLL-AF9, respectively, as well as the wildtype protein from the second allele. […] K562 was used as a control cell line containing two MLL wildtype alleles in order to exclude compounds that display general cytotoxic effects.
MV-4-1 1 and MOLM14 were cultured in RPMI-1640 (Sigma Aldrich) supplemented with 10% fetal bovine serum (HyClone), 2 mM L-glutamine (Sigma Aldrich) and 50 μg/ml gentamycin (Gibco). K562 were propagated in RPMI-1640 (Sigma Aldrich) supplemented with 20% fetal bovine serum (HyClone), 2 mM L-glutamine (Sigma Aldrich) and 50 μg/ml gentamycin (Gibco).
In order to assess the anti-proliferative effects, 1,500 MV-4-1 1, 300 MOLM14 or 750 K562 cells were seeded in 200 μl media per well in 96-well round bottom, ultra-low attachment plates (Costar, catalogue number 7007). Cell seeding numbers were chosen based on growth curves to ensure linear growth throughout the experiment. Test compounds were added at different concentrations and the DMSO content was normalized to 0.3%>. Cells were incubated for 8d at 37° C. and 5% C02. Spheroid like growth was monitored in real-time by live-cell imaging (IncuCyteZOOM, Essenbio, 4× objective) acquiring one image every four hours for 8d. Confluence (%) as a measure of spheroid size was determined using an integrated analysis tool.
In order to determine the cumulative effect of the test compounds over time, the area under the curve (AUC) in a plot of confluence against time was calculated. Confluence at the beginning of the experiment (t=0) was used as baseline for the AUC calculation.
Absolute IC50 values were calculated according to the following procedure: % Control=(AUC sample/AUC control)*100 AUC control=mean AUC of control values(cells without compound/DMSO as vehicle control)
A non-linear curve fit was applied using the least squares (ordinary) fit method to the plot of % control versus compound concentration. Based on this, the absolute IC50 value (half maximal inhibitory concentration of the test compound causing an anti-proliferative effect of 50% relative to the vehicle control) was calculated.

As to `CNCc1cccc(CNC2CCCN(c3ncnc4sc(CC(F)(F)F)cc34)CC2)c1` (stereo not shown) [Compound 17], the IC50 in experiment [1] came out at 33 nM; with MV-4-1 1 cells (MLL-AF4), 1.3 µM.
Take `CN(C)CCCCN(Cc1cnn(C)c1)C1CCCN(c2ncnc3sc(CC(F)(F)F)cc23)CC1` (stereo not shown) [Compound 61]: the IC50 in experiment [1] was determined as 181 nM.
For `C[C@@H](N[C@H]1CCCN(c2ncnc3sc(CC(F)(F)F)cc23)CC1)c1cnn(C)c1` (single isomer, unassigned) [Compound 54D], in experiment [1], the IC50 stood at 6760 nM.
In the case of `FC(F)(F)Cc1cc2c(N3CCC[C@@H](NCc4cn[nH]c4)CC3)ncnc2s1` (single isomer, unassigned) [Compound 26], in experiment [1], the IC50 was 27 nM.
Regarding `CC(C)[C@@H](CO)N[C@@H]1CCCN(c2ncnc3sc(CC(F)(F)F)cc23)CC1` [Compound 14A], the IC50 in experiment [1] worked out at 4470 nM.
Take `CNC(=O)[C@@H](NC1CCCN(c2ncnc3sc(CC(F)(F)F)cc23)CC1)C(C)C` (stereo partly shown) [Compound 52]: the IC50 in experiment [1] came out at 20800 nM.
On the same count and under the same terms, for `CC(C)CN(Cc1cnn(C)c1)[C@@H]1CCCN(c2ncnc3sc(CC(F)(F)F)cc23)CC1` (single isomer, unassigned) [Compound 58A] the value was 1550 nM.
On the same count and under the same terms, for `C[C@@H]1CCN(c2ncnc3sc(CC(F)(F)F)cc23)CC[C@@H]1NCc1ccccc1` (single isomer, unassigned) [Compound 68B] the value was 522 nM; for `FC(F)(F)Cc1cc2c(N3CCC[C@@H](N(Cc4ccccc4)C4COC4)CC3)ncnc2s1` (single isomer, unassigned) [Compound 59A], 709 nM; for `Cn1ncc2c1CCC[C@@H]2N[C@H]1CCCN(c2ncnc3sc(CC(F)(F)F)cc23)CC1` [Compound 65D], 8690 nM.
`CC(C)N[C@@H]1CCCN(c2ncnc3sc(CC(F)(F)F)cc23)CC1` (single isomer, unassigned) [Compound 13A]: in experiment [1], the concentration for half-maximal inhibition (IC50) came out at 5270 nM.
Regarding `Cn1cc(CNC2CCCN(c3ncnc4sc(CC(F)(F)F)cc34)CC2)cn1` (single isomer, unassigned) [Compound 11B], the IC50 in experiment [1] is 1470 nM.
For `FC(F)(F)Cc1cc2c(N3CCCC(NCC4CCOCC4)CC3)ncnc2s1` (stereo not shown) [Compound 55], the IC50 in experiment [1] was found to be 227 nM.
On to `Cn1cc2c(n1)CCC[C@@H]2N[C@H]1CCCN(c2ncnc3sc(CC(F)(F)F)cc23)CC1` (single isomer, unassigned) [Compound 66D], for which the IC50 in experiment [1] worked out at 880 nM.
Still for that read-out and setting: for `CC(C)NC1CCCN(c2ncnc3sc(CC(F)(F)F)cc23)CC1` (single isomer, unassigned) [Compound 13B] the value was 2460 nM; for `O=C(NC1CCCN(c2ncnc3sc(CC(F)(F)F)cc23)CC1)[C@H]1CC2(CC2)CN1` (stereo partly shown) [Compound 10A], 1530 nM.
On to `C[C@H](N[C@@H]1CCCN(c2ncnc3sc(CC(F)(F)F)cc23)CC1)c1cnn(C)c1` (single isomer, unassigned) [Compound 54B], for which the IC50 in experiment [1] was 13200 nM.
On the same count and under the same terms, for `CC(C)[C@@H](CO)N[C@H]1CCCN(c2ncnc3sc(CC(F)(F)F)cc23)CC1` [Compound 14B] the value was 767 nM; for `CC(C)[C@@H](N[C@@H]1CCCN(c2ncnc3sc(CC(F)(F)F)cc23)CC1)C1CNC1` (single isomer, unassigned) [Compound 35], 1010 nM; for `FC(F)(F)Cc1cc2c(N3CCCC(NCc4ccncn4)CC3)ncnc2s1` (stereo not shown) [Compound 69], 598 nM.
Same read-out and setting: for `Cn1cc2c(n1)CCC[C@H]2N[C@H]1CCCN(c2ncnc3sc(CC(F)(F)F)cc23)CC1` (single isomer, unassigned) [Compound 66C] the value was 5380 nM.
For `Cn1ncc2c1CCC[C@H]2N[C@@H]1CCCN(c2ncnc3sc(CC(F)(F)F)cc23)CC1` (single isomer, unassigned) [Compound 65A], the IC50 in experiment [1] turned out to be 3500 nM.
Turning to `FC(F)(F)Cc1cc2c(N3CCC[C@H](N(Cc4ccccc4)C4COC4)CC3)ncnc2s1` (single isomer, unassigned) [Compound 59B], the IC50 in experiment [1] was 1150 nM.
For `CN(C)CCCNC1CCCN(c2ncnc3sc(CC(F)(F)F)cc23)CC1` (stereo not shown) [Compound 56], the IC50 in experiment [1] stood at 724 nM.
Still for that read-out and setting: for `CNCCN(Cc1cnn(C)c1)C1CCCN(c2ncnc3sc(CC(F)(F)F)cc23)CC1` (stereo not shown) [Compound 39] the value was 852 nM; for `CC(C)CN(Cc1cnn(C)c1)[C@H]1CCCN(c2ncnc3sc(CC(F)(F)F)cc23)CC1` (single isomer, unassigned) [Compound 58B], 888 nM.
Regarding `C[C@H](N[C@H]1CCCN(c2ncnc3sc(CC(F)(F)F)cc23)CC1)c1cnn(C)c1` (single isomer, unassigned) [Compound 54C], in experiment [1], the IC50 was found to be 1490 nM.
Turning to `C[C@@H](N[C@@H]1CCCN(c2ncnc3sc(CC(F)(F)F)cc23)CC1)c1cnn(C)c1` (single isomer, unassigned) [Compound 54A], in experiment [1], the IC50 is 11900 nM.
`Cn1ncc2c1CCC[C@H]2N[C@H]1CCCN(c2ncnc3sc(CC(F)(F)F)cc23)CC1` [Compound 65C]: the IC50 in experiment [1] worked out at 686 nM.
In the case of `CN(C)CCCN(Cc1cnn(C)c1)C1CCCN(c2ncnc3sc(CC(F)(F)F)cc23)CC1` (stereo not shown) [Compound 63], the IC50 in experiment [1] is 369 nM.
Same read-out and setting: for `Cc1ccc(CN[C@@H]2CCCN(c3ncnc4sc(CC(F)(F)F)cc34)CC2)c(C)c1` (single isomer, unassigned) [Compound 9A] the value was 548 nM.
For the compound `CC(C)[C@H](N[C@H]1CCCN(c2ncnc3sc(CC(F)(F)F)cc23)CC1)C1CNC1` (single isomer, unassigned) [Compound 32], the IC50 in experiment [1] is 758 nM.
Consider `Cn1cc2c(n1)CCC[C@H]2N[C@@H]1CCCN(c2ncnc3sc(CC(F)(F)F)cc23)CC1` (single isomer, unassigned) [Compound 66A], for which, in experiment [1], the IC50 came to 7440 nM.
